The results in this text go back to ChEMBL document CHEMBL1132520, “Antimalarial activity of 3-hydroxyalkyl-2-methylene-propionic acid derivatives” (1999).

The source made the active and inactive calls. The calls are words filed in the database; no cut-off is given here.

Assay [1] relates to Plasmodium falciparum. Put plainly: In vitro inhibition of Plasmodium falciparum at 25 uM/well dose at 72 hrs in total parasite growth assay. The class given is functional.
In assay [2] the test system is Plasmodium falciparum. The assay is described as follows: In vitro inhibition of Plasmodium falciparum at 10 uM/well dose at 72 hrs in total parasite growth assay. The assay is classed as functional.
The subject of assay [3] is Plasmodium falciparum. Put plainly: In vitro inhibition of Plasmodium falciparum at 2.5 uM/well dose at 72 hrs in total parasite growth assay. The class given is functional.
Assay [4] has as its system Plasmodium falciparum. The assay is described as follows: In vitro inhibition of Plasmodium falciparum at 100 uM/well dose at 72 hrs in total parasite growth assay. The class given is functional.
The test system of assay [5] is Plasmodium falciparum. The assay is described as follows: In vitro inhibition of Plasmodium falciparum at 0.5 uM/well dose at 72 hrs in total parasite growth assay. The assay is classed as functional.
For assay [6], the system named is Plasmodium falciparum. The assay is described as follows: In vitro inhibition of Plasmodium falciparum at 1.0 uM/well dose at 72 hrs in total parasite growth assay. The class given is functional.
Assay [7] concerns Plasmodium falciparum. The assay is described as follows: In vitro inhibition of Plasmodium falciparum at 5 uM/well dose at 72 hrs in total parasite growth assay. The class given is functional.
For assay [8], the system named is Plasmodium falciparum. The assay is described as follows: In vitro antimalarial activity for Plasmodium falciparum at 50 uM/well dose at 24 hrs in Schizont maturation assay. The class given is functional.
The test system of assay [9] is Plasmodium falciparum. Put plainly: In vitro antimalarial activity for Plasmodium falciparum at 10 uM/well dose at 24 hrs in Schizont maturation assay. The class given is functional.
Assay [10] has as its system Plasmodium falciparum. Put plainly: In vitro antimalarial activity for Plasmodium falciparum at 0.25 uM/well dose at 24 hrs in Schizont maturation assay. The assay is classed as functional.
Assay [11] has as its system Plasmodium falciparum. Put plainly: In vitro inhibition of Plasmodium falciparum at 20 uM/well dose at 72 hrs in total parasite growth assay; Not determined. The assay is classed as functional.
Assay [12] concerns Plasmodium falciparum. The assay is described as follows: In vitro antimalarial activity for Plasmodium falciparum at 20 uM/well dose at 24 hrs in Schizont maturation assay. The assay is classed as functional.
Assay [13] concerns Plasmodium falciparum. The assay is described as follows: In vitro antimalarial activity for Plasmodium falciparum at 1 uM/well dose at 24 hrs in Schizont maturation assay. The assay is classed as functional.
Assay [14] relates to Plasmodium falciparum. The assay is described as follows: In vitro antimalarial activity for Plasmodium falciparum at 5 uM/well dose at 24 hrs in Schizont maturation assay. The assay is classed as functional.
The test system of assay [15] is Plasmodium falciparum. Put plainly: In vitro antimalarial activity for Plasmodium falciparum at 0.50 uM/well dose at 24 hrs in Schizont maturation assay. The class given is functional.
Assay [16] relates to Plasmodium falciparum. The assay is described as follows: In vitro inhibition of Plasmodium falciparum at 50 uM/well dose at 72 hrs in total parasite growth assay. The assay is classed as functional.
Assay [17] relates to Plasmodium falciparum. Put plainly: In vitro antimalarial activity for Plasmodium falciparum at 100 uM/well dose at 24 hrs in Schizont maturation assay. The class given is functional.
The test system of assay [18] is Plasmodium falciparum. Put plainly: In vitro antimalarial activity for Plasmodium falciparum at 2.5 uM/well dose at 24 hrs in Schizont maturation assay. The assay is classed as functional.
Assay [19] relates to Plasmodium falciparum. Put plainly: In vitro inhibition of Plasmodium falciparum at 0.25 uM/well dose at 72 hrs in total parasite growth assay. The class given is functional.
In assay [20] the test system is Plasmodium falciparum. The assay is described as follows: In vitro antimalarial activity for Plasmodium falciparum at 0.10 uM/well dose at 24 hrs in Schizont maturation assay. The assay is classed as functional.
Assay [21] has as its system Plasmodium falciparum. Put plainly: In vitro antimalarial activity for Plasmodium falciparum at 500 uM/well dose at 24 hrs in Schizont maturation assay. The assay is classed as functional.
Assay [22] has as its system Plasmodium falciparum. The assay is described as follows: In vitro inhibition of Plasmodium falciparum at 20 uM/well dose at 72 hrs in total parasite growth assay. The assay is classed as functional.
Assay [23] has as its system Mus musculus. The assay is described as follows: In vivo anti-malarial activity against Plasmodium berghei in mice (Mus musculus) at a dose of 160 mg/kg; Active. The assay is classed as functional, organism-based. The arrangement: dose 160 mg/kg.
The test system of assay [24] is Mus musculus. The assay is described as follows: Antimalarial activity against Plasmodium berghei evaluated in terms of mean survival time for mice (Mus musculus) at a dose of 80 mg/kg. The class given is functional.
Assay [25] has as its system Mus musculus. The assay is described as follows: Antimalarial activity against Plasmodium berghei evaluated in terms of mean survival time for mice (Mus musculus) at a dose of 160 mg/kg. The assay is classed as functional.
The subject of assay [26] is Mus musculus. The assay is described as follows: Antimalarial activity against Plasmodium berghei evaluated in terms of mean survival time for mice (Mus musculus) at a dose of 40 mg/kg. The class given is functional.
The test system of assay [27] is Mus musculus. The assay is described as follows: Anti-malarial activity against Plasmodium berghei evaluated in terms of mean survival time for mice (Mus musculus) at a dose of 20 mg/kg. The assay is classed as functional.
Assay [28] has as its system Mus musculus. Put plainly: In vivo antimalarial activity against Plasmodium berghei in mice (Mus musculus); Inactive. The assay is classed as functional, organism-based.

The term inhibition denotes the percentage by which the read-out fell short of the control.

For `C=C(C#N)C(O)c1ccco1` (stereo not drawn), the PGI with Plasmodium falciparum [1] was determined as 84%; in the assay with Plasmodium falciparum [2], 79%; in the assay with Plasmodium falciparum [3], 40%; in the assay with Plasmodium falciparum [4], 100%; in the assay on Plasmodium falciparum [5], 14%; in the assay with Plasmodium falciparum [6] it was 31.4%. In the assay with Plasmodium falciparum [7], this molecule had a PGI of 68.6%.

On to `C=C(C(=O)OC)C(O)c1cccnc1` (stereo not drawn), for which the PGI is recorded as 100% in the assay on Plasmodium falciparum [2]; 100% in the assay on Plasmodium falciparum [11]; 75% in the assay with Plasmodium falciparum [3]; 100% with Plasmodium falciparum [4]; 25% with Plasmodium falciparum [5]; 50% in the assay with Plasmodium falciparum [6]. The figures for the PGI with Plasmodium falciparum [16], with Plasmodium falciparum [19] and in the assay with Plasmodium falciparum [7] were 100%, 5% and 92.5%, respectively. The same molecule registered an inhibition at 50 µM in the assay on Plasmodium falciparum [8] of 100%. Besides, in the assay on Plasmodium falciparum [9], the inhibition at 10 µM was determined as 100%. Moreover, in the assay on Plasmodium falciparum [10], the inhibition at 0.25 µM is 5%. In the assay on Plasmodium falciparum [12], this molecule came in with an inhibition at 20 µM of 100%. In the assay with Plasmodium falciparum [13], this molecule returned an inhibition at 1 µM of 43%. The molecule also came in with an inhibition at 5 µM in the assay on Plasmodium falciparum [14] of 100%. The molecule also returned an inhibition at 0.5 µM with Plasmodium falciparum [15] of 29%. This molecule returned an inhibition at 100 µM in the assay with Plasmodium falciparum [17] of 100%. The same molecule registered an inhibition at 2.5 µM in the assay on Plasmodium falciparum [18] of 64%. Further, the inhibition at 0.1 µM with Plasmodium falciparum [20] was found to be 0%.

As for `C=C(C#N)C(O)c1ccc(OC)c(OC)c1` (stereo not drawn), 50 µM produced 71% inhibition with Plasmodium falciparum [8]. For the same molecule, the inhibition at 10 µM in the assay on Plasmodium falciparum [9] worked out at 42%. Moreover, in the assay on Plasmodium falciparum [10], the inhibition at 0.25 µM was 0%. Moreover, 1 µM produced 5.26% inhibition in the assay on Plasmodium falciparum [13]. The molecule further gave an inhibition at 5 µM with Plasmodium falciparum [14] of 21%. Moreover, testing at 0.5 µM with Plasmodium falciparum [15] gave an inhibition of 0%. The molecule further yielded an inhibition at 100 µM in the assay on Plasmodium falciparum [17] of 100%. Moreover, in the assay on Plasmodium falciparum [21], at 500 µM the inhibition was 100%. The molecule also had an inhibition at 0.1 µM with Plasmodium falciparum [20] of 0%.

For `C=C(C#N)C(OCCC#N)c1ccc2c(c1)OCO2` (stereo not drawn), the PGI worked out at 90% in the assay with Plasmodium falciparum [2]; 95% in the assay with Plasmodium falciparum [22]; 40% with Plasmodium falciparum [3]; 100% in the assay on Plasmodium falciparum [4]; 10% with Plasmodium falciparum [5]; 25% in the assay on Plasmodium falciparum [6]. Besides, the PGI in the assay on Plasmodium falciparum [16] amounted to 100%; in the assay with Plasmodium falciparum [19] it was 0%; in the assay with Plasmodium falciparum [7], 52.5%. Moreover, in the assay on Plasmodium falciparum [8], 50 µM produced 100% inhibition. In addition, the inhibition at 10 µM in the assay with Plasmodium falciparum [9] amounted to 93%. The same molecule had an inhibition at 0.25 µM with Plasmodium falciparum [10] of 6%. Also, the inhibition at 20 µM in the assay on Plasmodium falciparum [12] was 100%. This molecule yielded an inhibition at 1 µM in the assay on Plasmodium falciparum [13] of 43%. This molecule also yielded an inhibition at 5 µM in the assay on Plasmodium falciparum [14] of 64%. The result in the assay with Mus musculus [23] was Active. Further, in the assay with Plasmodium falciparum [15], the inhibition at 0.5 µM was determined as 36%. In addition, the Mean survival time in the assay on Mus musculus [24] amounted to 11.4 days; with Mus musculus [25], 14.2 days; with Mus musculus [26], 9.2 days; in the assay with Mus musculus [27] it was 7.8 days. This molecule returned an inhibition at 100 µM in the assay with Plasmodium falciparum [17] of 100%. In the assay with Plasmodium falciparum [18], this molecule gave an inhibition at 2.5 µM of 57%. In the assay with Plasmodium falciparum [20], this molecule came in with an inhibition at 0.1 µM of 0%.

Consider `C=C(C(=O)OC)C(O)c1ccccc1` (stereo not drawn), for which the PGI in the assay with Plasmodium falciparum [2] was found to be 100%; with Plasmodium falciparum [11], 100%; in the assay on Plasmodium falciparum [3], 62.5%; in the assay with Plasmodium falciparum [4] it was 100%; in the assay with Plasmodium falciparum [5], 7.5%; in the assay with Plasmodium falciparum [6] it was 40%. In addition, the PGI in the assay with Plasmodium falciparum [16] is 100%; in the assay on Plasmodium falciparum [19] it was 0%; in the assay on Plasmodium falciparum [7], 100%. In the assay with Plasmodium falciparum [8], this molecule gave an inhibition at 50 µM of 100%. In the assay with Plasmodium falciparum [9], this molecule displayed an inhibition at 10 µM of 100%. Moreover, at 0.25 µM the inhibition with Plasmodium falciparum [10] was 0%. Further, 20 µM produced 100% inhibition with Plasmodium falciparum [12]. The molecule also had an inhibition at 1 µM in the assay on Plasmodium falciparum [13] of 43%. For the same molecule, in the assay with Plasmodium falciparum [14], the inhibition at 5 µM turned out to be 93%. Testing at 0.5 µM in the assay on Plasmodium falciparum [15] gave an inhibition of 7%. Moreover, in the assay with Mus musculus [28], the outcome was inactive. The Mean survival time with Mus musculus [24] came to 10.2 days; with Mus musculus [25] it was 12 days; with Mus musculus [26], 7 days; with Mus musculus [27], 6 days. This molecule registered an inhibition at 100 µM in the assay on Plasmodium falciparum [17] of 100%. Moreover, 2.5 µM produced 64% inhibition in the assay on Plasmodium falciparum [18]. Further, the inhibition at 0.1 µM in the assay on Plasmodium falciparum [20] was found to be 0%.
